The values below come from ChEMBL document CHEMBL1201862, “PubChem BioAssay data set” (2004).

Among the test systems are ACHN; CAKI-1; EKVX; HCT-15; HOP-62; HOP-92; HT-29; KM12; LOX IMVI; MCF7; MDA-MB-435; Malme-3M; NCI-H23; NCI-H460; NCI/ADR-RES; OVCAR-5; OVCAR-8; SK-MEL-28; SK-MEL-5; SN12C.
Common to all, as to assay: NCI tumour cell line growth inhibition, 48 h

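Assay format: 96-well plates, 48-hour exposure. GI50: concentration for 50% inhibition of growth.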 Active and inactive are the calls of the source. Rule as the data show it: active = GI50 up to about 1.1 µM and inactive = higher. Where a SMILES comes first, the peptide text is derived from it. [ ]: non-standard residue; d: D form. The star is where a group is joined. Phe(4-NO2) = N[CH](Cc1ccc([N+](=O)[O-])cc1)C(=O)O; Boc = CC(C)(C)OC(=O)*; OtBu = CC(C)(C)O* A value given as a limit tells only on which side of the number the result lay.

Turning to `Cn1c(O)c(C(=O)Nc2ccc([N+](=O)[O-])cc2)c(=O)n(C)c1=S`, the GI50 was 2.48 µM (inactive) in the assay on ACHN; 2.81 µM (inactive) in the assay with CAKI-1; 2.9 µM (inactive) in the assay on EKVX; 2.13 µM in the assay on HCT-15; 1.23 µM (inactive) in the assay with HOP-62; 1.54 µM (inactive) in the assay on HOP-92. Also, the GI50 in the assay with HT-29 was 2.23 µM (inactive); in the assay with KM12, 2.49 µM (inactive); in the assay on LOX IMVI, 2.69 µM (inactive); with MCF7, 1.78 µM (inactive); in the assay with MDA-MB-435, 1.51 µM (inactive); in the assay on Malme-3M, 2.11 µM (inactive). Moreover, the GI50 was 1.42 µM (inactive) with NCI-H23; 2.82 µM (inactive) in the assay with NCI-H460; 2.79 µM (inactive) in the assay on NCI/ADR-RES; 4.91 µM (inactive) in the assay on OVCAR-5; 2.14 µM (inactive) with OVCAR-8; 1.88 µM (inactive) in the assay with SK-MEL-28. Further, the GI50 in the assay with SK-MEL-5 was 0.776 µM (active); in the assay on SN12C, 3.13 µM (inactive).
Turning to `C=CC(=O)N1C/C(=C\c2ccccc2)C(=O)/C(=C/c2ccccc2)C1`, the GI50 was 1.83 µM (inactive) in the assay on ACHN; 2.83 µM (inactive) with CAKI-1; 3.47 µM (inactive) with EKVX; 1.18 µM with HCT-15; 2.33 µM (inactive) with HOP-62; 3.62 µM (inactive) in the assay with HOP-92. Besides, the GI50 in the assay on HT-29 was 0.467 µM (active); in the assay on KM12, 0.989 µM (active); in the assay with LOX IMVI, 0.254 µM (active); in the assay on MCF7 it was 0.5 µM (active); in the assay on MDA-MB-435, 0.53 µM (active); in the assay with Malme-3M, 2.15 µM (inactive). Also, the GI50 in the assay on NCI-H23 is 2.14 µM (inactive); in the assay on NCI-H460, 1.89 µM (inactive); with NCI/ADR-RES, 1.93 µM (inactive); in the assay on OVCAR-5 it was 2.49 µM (inactive); with OVCAR-8, 1.3 µM (inactive); with SK-MEL-28 it was 1.82 µM (inactive). For the same compound, the GI50 in the assay with SK-MEL-5 is 1.61 µM (inactive); in the assay on SN12C it was 1.67 µM (inactive).
Take `CC1(C)OC(=O)C(C#N)=C1C[n+]1ccccc1`: the GI50 was > 10 µM (inactive) in the assay on ACHN; > 10 µM (inactive) in the assay on CAKI-1; > 10 µM (inactive) in the assay with EKVX; above 10 µM in the assay on HCT-15; > 10 µM (inactive) with HOP-62; > 10 µM (inactive) in the assay on HOP-92. In addition, the GI50 in the assay on HT-29, in the assay on KM12, with LOX IMVI, with MCF7, in the assay on MDA-MB-435 and in the assay on Malme-3M was > 10 µM (inactive) throughout. Also, the GI50 in the assay with NCI-H23, in the assay on NCI-H460, with NCI/ADR-RES, in the assay with OVCAR-5, in the assay on OVCAR-8 and with SK-MEL-28 was > 10 µM (inactive) in each case. For the same compound, the GI50 in the assay on SK-MEL-5 and with SN12C was > 10 µM (inactive) each time.
As for `COC(=O)CCC1(O)C=CC(=O)C=C1`, the GI50 in the assay with ACHN was 51.6 µM (inactive); in the assay with CAKI-1, 16.6 µM (inactive); in the assay on EKVX it was > 100 µM (inactive); with HCT-15, 18.4 µM; with HOP-62 it was > 100 µM (inactive); in the assay on HOP-92, 65.6 µM (inactive). For the same compound, the GI50 in the assay on HT-29 is 36.7 µM (inactive); in the assay with KM12, > 100 µM (inactive); in the assay on LOX IMVI, 30.3 µM (inactive); in the assay on MCF7 it was 38.3 µM (inactive); with MDA-MB-435, > 100 µM (inactive); with Malme-3M, 17 µM (inactive). Also, the GI50 in the assay with NCI-H23 was 33.7 µM (inactive); with NCI-H460, 28.2 µM (inactive); in the assay with NCI/ADR-RES it was 31.3 µM (inactive); with OVCAR-5 it was > 100 µM (inactive); in the assay on OVCAR-8, 31.7 µM (inactive); in the assay on SK-MEL-28 it was 23.2 µM (inactive). For the same compound, the GI50 with SK-MEL-5 was 31.9 µM (inactive); in the assay on SN12C it was 57.1 µM (inactive).
Turning to `CC(C)/C(Cl)=N/OC(=O)Nc1ccc(Br)cc1`, the GI50 is 1.74 µM (inactive) in the assay on ACHN; 1.73 µM (inactive) with CAKI-1; 1.97 µM (inactive) in the assay on EKVX; 2.12 µM in the assay on HCT-15; 16.9 µM (inactive) in the assay with HOP-62; 1.77 µM (inactive) in the assay with HOP-92. The GI50 was 5.83 µM (inactive) in the assay with HT-29; 12.9 µM (inactive) in the assay with KM12; 1.32 µM (inactive) with LOX IMVI; 7.66 µM (inactive) in the assay with MCF7; 11 µM (inactive) in the assay with MDA-MB-435; 1.69 µM (inactive) in the assay on Malme-3M. Moreover, the GI50 is 13.3 µM (inactive) in the assay with NCI-H23; 15 µM (inactive) in the assay with NCI-H460; 13.4 µM (inactive) with NCI/ADR-RES; 14.6 µM (inactive) in the assay with OVCAR-5; 14.6 µM (inactive) in the assay on OVCAR-8; 3.76 µM (inactive) in the assay with SK-MEL-28. Also, the GI50 in the assay with SK-MEL-5 was 12.9 µM (inactive); in the assay with SN12C, 2.16 µM (inactive).
Consider `CCN(CC)CCCNc1nncc2cc3c([nH]c4ccc(OC)cc43)c(C)c12`, for which the GI50 with ACHN was 8.26 µM (inactive); in the assay on CAKI-1, 11.5 µM (inactive); in the assay on EKVX it was 15.8 µM (inactive); in the assay with HCT-15, 19.3 µM; in the assay with HOP-62, 4.23 µM (inactive); with HOP-92 it was 10.1 µM (inactive). The GI50 is 3.4 µM (inactive) in the assay with HT-29; 4.2 µM (inactive) in the assay on KM12; 3.84 µM (inactive) in the assay on LOX IMVI; 2.56 µM (inactive) with MCF7; 10.8 µM (inactive) with MDA-MB-435; 13.7 µM (inactive) with Malme-3M. The GI50 in the assay on NCI-H23 was 10.7 µM (inactive); with NCI-H460 it was 3.63 µM (inactive); with NCI/ADR-RES, > 100 µM (inactive); with OVCAR-5, 11.5 µM (inactive); in the assay with OVCAR-8, 3.98 µM (inactive); in the assay on SK-MEL-28, 15.7 µM (inactive). Further, the GI50 is 14.7 µM (inactive) in the assay on SK-MEL-5 and 6.12 µM (inactive) with SN12C.
Consider `CCC(=O)C(C(C)/C=C/CCSc1ccccc1)C(O)CCCCCC(=O)OC` (stereo not given), for which the GI50 is > 100 µM (inactive) with ACHN; 67.5 µM (inactive) with CAKI-1; > 100 µM (inactive) with EKVX; 88.7 µM in the assay with HCT-15; > 100 µM (inactive) in the assay on HOP-62; 13.7 µM (inactive) in the assay on HOP-92. Also, the GI50 was > 100 µM (inactive) in the assay with HT-29; 40.6 µM (inactive) in the assay on KM12; 81.3 µM (inactive) in the assay on LOX IMVI; 66.4 µM (inactive) in the assay on MCF7; > 100 µM (inactive) with MDA-MB-435; > 100 µM (inactive) in the assay with Malme-3M. For the same compound, the GI50 in the assay on NCI-H23 is 77.3 µM (inactive); in the assay on NCI-H460 it was > 100 µM (inactive); in the assay on NCI/ADR-RES, 99.5 µM (inactive); in the assay on OVCAR-5, > 100 µM (inactive); in the assay with OVCAR-8, > 100 µM (inactive); in the assay with SK-MEL-28, > 100 µM (inactive). The GI50 in the assay on SK-MEL-5 was 36.8 µM (inactive); in the assay on SN12C it was > 100 µM (inactive).
As to `COC(=O)C(Cc1ccc([N+](=O)[O-])cc1)NC(=O)C(CC(=O)OC(C)(C)C)NC(=O)OC(C)(C)C` (stereo not given) (Boc-Asp(OtBu)-[Phe(4-NO2)]-OMe; configuration not given here), the GI50 in the assay on ACHN was > 100 µM (inactive); in the assay with CAKI-1 it was > 100 µM (inactive); in the assay on EKVX, > 100 µM (inactive); with HCT-15, above 100 µM; with HOP-62, > 100 µM (inactive); with HOP-92, > 100 µM (inactive). For the same compound, the GI50 in the assay on HT-29 is > 100 µM (inactive); with KM12 it was > 100 µM (inactive); in the assay with LOX IMVI it was 20.9 µM (inactive); in the assay on MCF7, > 100 µM (inactive); in the assay on MDA-MB-435, > 100 µM (inactive); in the assay with Malme-3M, > 100 µM (inactive). In addition, the GI50 with NCI-H23 was > 100 µM (inactive); in the assay on NCI-H460 it was > 100 µM (inactive); in the assay with NCI/ADR-RES, > 100 µM (inactive); in the assay on OVCAR-5, > 100 µM (inactive); in the assay with OVCAR-8 it was 38.1 µM (inactive); in the assay on SK-MEL-28 it was 25.5 µM (inactive). Moreover, the GI50 in the assay on SK-MEL-5 and in the assay with SN12C was > 100 µM (inactive) throughout.
Take `CC1=NN(c2nc(N)nc(CBr)n2)C(C)(C)C1`: the GI50 in the assay with ACHN was 3.56 µM (inactive); in the assay with CAKI-1 it was 1.47 µM (inactive); with EKVX, 3.66 µM (inactive); with HCT-15 it was 3.61 µM; with HOP-62, 19.7 µM (inactive); in the assay on HOP-92, 0.436 µM (active). For the same compound, the GI50 with HT-29 is 4.98 µM (inactive); in the assay with KM12, 10.7 µM (inactive); with LOX IMVI, 0.708 µM (active); in the assay on MCF7 it was 2.47 µM (inactive); in the assay with MDA-MB-435, 11 µM (inactive); in the assay on Malme-3M, 2.45 µM (inactive). Also, the GI50 is 9.86 µM (inactive) in the assay with NCI-H23; 7.64 µM (inactive) in the assay on NCI-H460; 17.7 µM (inactive) with NCI/ADR-RES; 3.71 µM (inactive) with OVCAR-5; 5.45 µM (inactive) with OVCAR-8; 13.7 µM (inactive) in the assay on SK-MEL-28. Also, the values for the GI50 in the assay on SK-MEL-5 and in the assay on SN12C were 11.3 µM (inactive) and 5.22 µM (inactive), respectively.
Regarding `Cc1cn(S(=O)(=O)c2ccccc2)c2c(OCc3ccccc3)cc(NS(C)(=O)=O)cc12`, the GI50 is 20.4 µM (inactive) in the assay on ACHN; 72.3 µM (inactive) in the assay on CAKI-1; 5.35 µM (inactive) in the assay with EKVX; 12.9 µM in the assay with HCT-15; 50.2 µM (inactive) in the assay on HOP-62; 27.2 µM (inactive) in the assay on HOP-92. Moreover, the GI50 in the assay on HT-29 was 4.42 µM (inactive); with KM12, 10.9 µM (inactive); in the assay on LOX IMVI it was 11.4 µM (inactive); with MCF7, 6.98 µM (inactive); with MDA-MB-435, 9.64 µM (inactive); with Malme-3M it was 8.38 µM (inactive). Besides, the GI50 in the assay with NCI-H23 is 16 µM (inactive); in the assay with NCI-H460, 18.5 µM (inactive); with NCI/ADR-RES, 14.9 µM (inactive); with OVCAR-5 it was 61.8 µM (inactive); with OVCAR-8, 32 µM (inactive); in the assay with SK-MEL-28, 52.8 µM (inactive). The values for the GI50 in the assay on SK-MEL-5 and in the assay on SN12C were 4.35 µM (inactive) and 13.7 µM (inactive), respectively.
